Data from patent US4272437A, “Antibacterial agents, and 4-thio azetidinone intermediates” (priority 1979, dated 1981).
In brackets after ≈: the same amount, converted by molar mass. Where two headings read alike, the source gives them in different places.

Legend:
[1] = test system: Staph. aureus (Pen-Res) A-9606; experiment: MIC, tube dilution, Staphylococcus aureus A9606 (Pen-Res); assay type: cell-based; details: Staphylococcus aureus, Staph. aureus A9606 (Pen-Res); overnight 37° C.; read-out: Minimum Inhibitory Concentration (M.I.C.)
Text: (§1) Representative compounds of the present invention were subjected to in vitro antibiotic screening against a variety of microorganisms.

[2] = test system: Str. faecalis A-20688; experiment: MIC, tube dilution, Streptococcus faecalis A20688; assay type: cell-based; details: Enterococcus faecalis, A20688, Str. faecalis A20688; overnight 37° C.; read-out: Minimum Inhibitory Concentration (M.I.C.)
Text: as §1

[3] = test system: E. coli A-20341-1; experiment: MIC, tube dilution, Escherichia coli A20341-1; assay type: cell-based; details: Escherichia coli, A203411, E. coli A20341-1; overnight 37° C.; read-out: Minimum Inhibitory Concentration (M.I.C.)
Text: as §1

[4] = test system: Klebsiella species A20468; experiment: MIC, tube dilution, Klebsiella species A20468; assay type: cell-based; details: Klebsiella species (K. pneumoniae) A20468; overnight 37° C.; read-out: Minimum Inhibitory Concentration (M.I.C.)
Text: as §1

[5] = test system: Providencia stuartii A21205; experiment: MIC, tube dilution, Providencia stuartii (Pr. rettgeri) A21205; assay type: cell-based; details: Providencia stuartii, A21205, Providencia stuartii (Pr. rettgeri) A21205; overnight 37° C.; read-out: Minimum Inhibitory Concentration (M.I.C.)
Text: as §1

[6] = test system: Ps. aeruginosa A-21213; experiment: MIC, tube dilution, Pseudomonas aeruginosa A21213; assay type: cell-based; details: Pseudomonas aeruginosa A21213; overnight 37° C.; read-out: Minimum Inhibitory Concentration (M.I.C.)
Text: as §1

[7] = test system: S. aureus A9606; experiment: In vivo protection of mice, lethal infection with S. aureus A9606; details: Staphylococcus aureus, IM, 2 treatments, 8 × 10^8 organisms, read-out: PD50
Description: (§2) Representative compounds of the present invention were also tested in vivo in mice and their PD50 (dose of compound in mg/kg required to protect 50% of the treated mice against an otherwise lethal infection of a micro-organism) values determined with respect to the test organisms shown below.

[8] = test system: K. pneumoniae A15130; experiment: In vivo protection of mice, lethal infection with K. pneumoniae A15130; details: Klebsiella pneumoniae, IM, 2 treatments, 1.2 × 10^3 organisms, read-out: PD50
Description: as §2

[9] = test system: S. pneumoniae A9585; experiment: In vivo protection of mice, lethal infection with S. pneumoniae A9585; details: Streptococcus pneumoniae, A9585, im, 2 treatments, read-out: PD50
Description: as §2

[10] = test system: S. pyogenes A9604; experiment: In vivo protection of mice, lethal infection with S. pyogenes A9604; details: Streptococcus pyogenes, A9604, im, 2 treatments, read-out: PD50
Description: as §2

[11] = test system: S. aureus A9537; experiment: In vivo protection of mice, lethal infection with S. aureus A9537; details: IM, 2 treatments; for ED50: Staphylococcus aureus, A9537, im, read-out: PD50
Description: as §2

[12] = test system: Gram-negative and Gram-positive organisms; details: literature; cited from earlier work
[13] = test system: β-lactamases; details: literature; cited from earlier work
[14] = in vitro and in vivo, literature; cited from earlier work

Compound | MIC [1] [µg/mL] | MIC [2] [µg/mL] | MIC [3] [µg/mL] | MIC [4] [µg/mL] | MIC [5] [µg/mL] | MIC [6] [µg/mL] | ED50 [7] [mg/kg] | ED50 [8] [mg/kg] | ED50 ([9]; 3 × 10^4 organisms) [mg/kg] | ED50 ([9]; 3.4 × 10^4 organisms) [mg/kg] | ED50 ([10]; 1.2 × 10^3 organisms) [mg/kg] | ED50 ([10]; 8 × 10^3 organisms) [mg/kg] | PD50 ([11]; 1.1 × 10^6 organisms, listed as Prep. 2,3) [mg/kg/treatment] | ED50 ([11]; 1.1 × 10^6 organisms) [mg/kg] | ED50 ([11]; 7.8 × 10^5 organisms) [mg/kg] | antibacterial activity [12] | β-lactamase inhibition [13] | enhancement of activity of penicillins and cephalosporins [14]
CC1=C(C(=O)O)N2C(=O)C[C@H]2S1 [Preparation 2,3, 2-Methylpenem-3-carboxylic Acid] | 1 (≈ 5.4 µM) | 32 (≈ 173 µM) | 16 (≈ 86.4 µM) | > 125 | 4 (≈ 21.6 µM) | > 125 | > 50 | > 400 | > 12.5 | > 50 | > 50 | > 12.5 | 22 | 13 | 13 | – | – | –
O=C(O)[C@H]1/C(=C/CO)O[C@@H]2CC(=O)N21 [clavulanic acid] | – | – | – | – | – | – | – | – | – | – | – | – | – | – | – | low order of antibacterial activity | inhibits the action of certain β-lactamases | enhances the in vitro and in vivo activity of some penicillins and cephalosporins
